The test system of assay [1] is (5′CAG/3′GAC)x6; AAx6; AA × 6 (RNA, repeat) GGGAGAGGGUUUAAUCAGCAGCAGCAGCAGCAGUACGAAAGUACAGCAGCAGCAGCAGCAGAUUGGAUCCGCAAGG
Kind of assay: ITC. The conditions noted are these: 0.1 M NaCl; 10 mM Na2HPO4, EDTA, pH 7.2; two-site fit; nanomolar range stated.

Assay [2] shares this test system. Kind of assay: UV melting. The conditions noted are these: Na+ 10 mM Na2HPO4 + 0.1 M NaCl (melting buffer not given; assumed same as CD/ITC buffer, which also has 50 mM EDTA); derived from two Tm (51.8, 57.9); D/N 2.0; per base.
Assay [3] shares this test system. The assay is described as follows: fluorescence titration. The conditions noted are these: room temperature; two-site fit.
For assay [4], the system named is 5′r(CCGCAGCGG)3′ (RNA, mismatch bulge abasic) CCGCAGCGG
The assay is described as follows: 1D and 2D NMR titration. The following applies: 298 K; D/N 0.0 to 2.0.

The structures appear in SMILES notation.

Turning to `Cc1cc2ccccc2nc1-c1ccccc1F`, the binding entry in assay [1], in assay [3] and in assay [4] was “yes” in each case. For the same compound, the dTm in assay [2] came out at 6.1 °C.

The values are drawn from paper PMC6856162 (2019).
